From publication PMC8632988, “Inhibition of SYK and cSrc kinases can protect bone and cartilage in preclinical models of osteoarthritis and rheumatoid arthritis” (Scientific Reports, 2021)
“And” between values parts separate entries of the source, which are not always exact repeats. Equal entries are not always repeated.

Legend:
THP-1 cells = assay: Inhibition of TNF-α secretion by activated monocytes; assay type: cell-based; settings: Homo sapiens, differentiated monocytes, IgG-coated plates, read-out: IC50, inhibition of TNF-α release
Protocol: The assay was performed at A. N. Bakh Institute of Biochemistry, Russia. Human leukemia monocytic THP-1 cells obtained from Russian collection cell cultures (RCCC) were cultured in 5% CO2 humidified atmosphere at 37 °C in RPMI 1640 supplemented with 100 U mL^–1 penicillin/streptomycin, 2% FBS and 20 μM β-mercaptoethanol. THP-1 cells were incubated in 5% CO2 atmosphere at 37 °C in RPMI 1640 medium. To induce differentiation the cells were treated with IFN-g for six days. 96-well culture plate coated with combined human IgG were incubated during night at 4 °C (or for 1 h at 37 °C). To evaluate baseline cell simulation F(ab’)2 was used as a negative control in part of wells. Unbounded antibodies were removed with sodium-phosphate buffer. A solution of test compound (MT-SYK-03 or) and differentiated cells in cultivating medium were added in each well. […] Each concentration was tested in triplicate; the experiment was replicated twice. For dose–response curve see Fig. S3.

human osteoclasts = assay: Osteoclast-mediated resorption of the mineralized matrix; assay type: cell-based; design: Ratio %: unit not given here; settings: for Ratio %: vehicle average = 1.000
Protocol: The experiment was performed at Atlantic Bone Screen (France) and approved by Atlantic Bone Screen ethics committee. Human CD14 + monocytes were isolated from peripheral blood of healthy volunteers (informed consent was obtained from all subjects) using density gradient centrifugation (Ficoll-Hypaque) and magnetic cell sorting (MACS, MiltenyiBiotec). CD14 + monocytes (1.5 × 10^6 cells/well) were cultured for three days in proliferation medium (αMEM/FCS-10% supplemented with 25 ng/mL M-CSF), inducing proliferation and expression of RANK. Secondly, the cells were differentiated into osteoclasts in differentiation medium supplemented with 100 ng/mL RANKL for 4 days. Osteoclasts were detached from the wells using accutase, the cell suspension was homogenized and cells (75 μL/well) were reseeded into: (a) a 96-well plate coated with a synthetic mineralized matrix for an evaluation of osteoclast resorption, or (b) a classic 96-well plastic culture plate, for an assessment of osteoclast number. 75 μL of differentiation medium containing M-CSF and RANKL (at a 2 × concentration) was added to each well. The cells were incubated for an hour and were cultured for 48 h in the fresh differentiation medium supplemented with MT-SYK-03 or vehicle (DMSO, 0.3%). All treatments were carried out in quadruple. Then the cell medium was removed, cells were lysed and the surface of the resorbed areas of the mineralized matrix was quantified in each well. TRAP staining was performed for cells in a classic plastic plate and the number of mature osteoclasts (TRAP-positive cells with three or more nuclei) was determined in each well. Reconstruction of images and osteoclast count was performed using Nikon NIS-D software.

[1] = MT-SYK-03 0.12 μM, individual wells
[2] = MT-SYK-03 0.37 μM, individual wells
[3] = MT-SYK-03 3.3 μM, individual wells
[4] = MT-SYK-03 10 μM, individual wells

Q: Which results are given for `COc1cc(Nc2ncnc(Nc3cc4c(cn3)NC(=O)C(C)(C)O4)n2)cc(OC)c1OC` [MT-SYK-03]?
A: IC50 (THP-1 cells): 480 nM; Relative resorbed surface (human osteoclasts; 10 μM, 48 h, versus vehicle control): more than threefold; Ratio resorption/Nb OC (human osteoclasts; MT-SYK-03 0.12 μM, Average): 0.079; Resorption, % resorption (human osteoclasts; MT-SYK-03 0.12 μM, Average): 31.78%; TRAP, Number of osteoclasts (Nb OC) (human osteoclasts; MT-SYK-03 0.12 μM, Average): 405; Ratio % (human osteoclasts; MT-SYK-03 0.12 μM, Average): 1.001; Ratio resorption/Nb OC (human osteoclasts; [1]): 0.088 and 0.075 and 0.085 and 0.067; Resorption, % resorption (human osteoclasts; [1]): 34.41% and 30.62% and 34.06% and 28.02%; TRAP, Number of osteoclasts (Nb OC) (human osteoclasts; [1]): 389 and 408 and 402 and 419; Ratio resorption/Nb OC (human osteoclasts; MT-SYK-03 0.37 μM, Average): 0.062; Resorption, % resorption (human osteoclasts; MT-SYK-03 0.37 μM, Average): 26.43%; TRAP, Number of osteoclasts (Nb OC) (human osteoclasts; MT-SYK-03 0.37 μM, Average): 422; Ratio % (human osteoclasts; MT-SYK-03 0.37 μM, Average): 0.789; Ratio resorption/Nb OC (human osteoclasts; [2]): 0.084 and 0.065 and 0.069 and 0.031; Resorption, % resorption (human osteoclasts; [2]): 33.11% and 27.51% and 32.94% and 12.15%; TRAP, Number of osteoclasts (Nb OC) (human osteoclasts; [2]): 394 and 426 and 478 and 391; Ratio resorption/Nb OC (human osteoclasts; MT-SYK-03 3.3 μM, Average): 0.015; Resorption, % resorption (human osteoclasts; MT-SYK-03 3.3 μM, Average): 2.81%; TRAP, Number of osteoclasts (Nb OC) (human osteoclasts; MT-SYK-03 3.3 μM, Average): 196; Ratio % (human osteoclasts; MT-SYK-03 3.3 μM, Average): 0.197; Ratio resorption/Nb OC (human osteoclasts; [3]): 0.014 and 0.025 and 0.011 and 0.012; Resorption, % resorption (human osteoclasts; [3]): 2.31% and 3.40% and 2.62% and 2.91%; TRAP, Number of osteoclasts (Nb OC) (human osteoclasts; [3]): 165 and 136 and 247 and 235; Ratio resorption/Nb OC (human osteoclasts; MT-SYK-03 10 μM, Average): 0.004; Resorption, % resorption (human osteoclasts; MT-SYK-03 10 μM, Average): 1.53%; TRAP, Number of osteoclasts (Nb OC) (human osteoclasts; MT-SYK-03 10 μM, Average): 8; Ratio % (human osteoclasts; MT-SYK-03 10 μM, Average): 0.044; Ratio resorption/Nb OC (human osteoclasts; [4]): 0.016 and 0.024 and 0.023 and 0.028; Resorption, % resorption (human osteoclasts; [4]): 5.87% and 9.73% and 8.76% and 11.00% and 8.84%; TRAP, Number of osteoclasts (Nb OC) (human osteoclasts; [4]): 371 and 402 and 388 and 390
